Experimental data reported in patent US12391685B2, “Inhibitors of RNA-guided nuclease target binding and uses thereof” (THE BROAD INSTITUTE, INC., priority 2018, dated 2025).

Tests used:
[1] = Plasma stability assay; format: in vitro ADME; details: 5 μM, 50% human plasma in PBS, 5 h
Method: Plasma stability assay. Human plasma stability of the compounds was performed following a reported protocol (Di et al., 2005). BRD0539 (5 μM) was incubated with 50% human plasma (K2 EDTA, BioreclamationIVT) in PBS for 5 h in triplicate. Eucatropine (Aldrich) and verapamil (Acros) were included as the positive and negative control, respectively. The samples were analyzed by UPLC-MS (AB Sciex 4500 with Waters Acquity FTN) with compounds detected by […] mass spectrometer. All integration and analysis were performed using DiscoveryQuant software.

[2] = biological target: SpCas9 (Streptococcus pyogenes serotype M1, UniProt Q99ZW2); format: cell-based, S. pyogenes; set-up: made in house; host or cells: E. coli Rosetta (DE3); details: not told
Text: FIGS. 8A-8H—Structure-activity analysis and inhibition of dCas9-based transcriptional upregulation. (FIG. 8A) Structure-activity relationship studies of BRD3433 in the eGFP-disruption assay in U2OS.eGFP.PEST cells. The set of functional groups on top represents variation at the 1-N-cap position (R^1) whereas those at the bottom represents the functional group variation at the 8-position (R^2). Bar plot depicts the reduction in the activity of different structural analogs with respect to that of BRD3433. Asterisk-labeled compounds contain a methyl group at the 4-N position, while others have a proton. The data are an average of two biological replicates. (FIG. 8B) Inhibition of dSpCas9-based transcriptional upregulation of HBG1 gene in HEK293FT cells by BRD7087. Cells were transfected with dSpCas9, MS2.p65.HSF1.GFP plasmids along with either RFP or HBG1 gRNA plasmid and incubated in the presence of the small molecules at the indicated concentration for 48 h before RT-qPCR analysis. Data represents average of 6 technical replicates. Y-axis represents % fold change in the compound activity with respect to BRD7087. […] (FIG. 8D) Cellular impermeability of the anti-CRISPR protein AcrllA4 assessed by lack of SpCas9 inhibition in the eGFP-disruptoin assay when AcrLLA4 is incubated in the media. […] (FIG. 8F) Human plasma stability of compound as determined by UPLC/MS in MRM method. […]

[3] = biological target: T1, SpCas9:gRNA (Streptococcus pyogenes serotype M1, UniProt Q99ZW2); assay: In vitro DNA cleavage assay; format: biochemical, S. pyogenes; details: SpCas9 5 nM; read-out: apparent IC50
T1 construct: made in house; host or cells: E. coli Rosetta (DE3)
Method: In vitro DNA cleavage assay. Inhibition of SpCas9 nuclease activity was assessed in an in vitro DNA cleavage assay with a linearized substrate plasmid DNA. A 94 μL of preformed SpCas9:gRNA (5.3 nM) was incubated with a 3 μL DMSO solution of BRD0539 at the indicated concentrations (13.6-25 μM) for 30 min at room temperature followed by addition of 3 μL of 33.3 nM substrate DNA and incubation for additional 30 min at 37° C. The reaction was quenched by the addition of 2 μL of Proteinase K (Qiagen) for 10 min and then analyzed by 1% agarose gel and visualized by SYBR Gold (Thermofisher). The bands were quantified by Image J and plotted in GraphPad Prism.

Sequence of SpCas9 (Q99ZW2 whole entry): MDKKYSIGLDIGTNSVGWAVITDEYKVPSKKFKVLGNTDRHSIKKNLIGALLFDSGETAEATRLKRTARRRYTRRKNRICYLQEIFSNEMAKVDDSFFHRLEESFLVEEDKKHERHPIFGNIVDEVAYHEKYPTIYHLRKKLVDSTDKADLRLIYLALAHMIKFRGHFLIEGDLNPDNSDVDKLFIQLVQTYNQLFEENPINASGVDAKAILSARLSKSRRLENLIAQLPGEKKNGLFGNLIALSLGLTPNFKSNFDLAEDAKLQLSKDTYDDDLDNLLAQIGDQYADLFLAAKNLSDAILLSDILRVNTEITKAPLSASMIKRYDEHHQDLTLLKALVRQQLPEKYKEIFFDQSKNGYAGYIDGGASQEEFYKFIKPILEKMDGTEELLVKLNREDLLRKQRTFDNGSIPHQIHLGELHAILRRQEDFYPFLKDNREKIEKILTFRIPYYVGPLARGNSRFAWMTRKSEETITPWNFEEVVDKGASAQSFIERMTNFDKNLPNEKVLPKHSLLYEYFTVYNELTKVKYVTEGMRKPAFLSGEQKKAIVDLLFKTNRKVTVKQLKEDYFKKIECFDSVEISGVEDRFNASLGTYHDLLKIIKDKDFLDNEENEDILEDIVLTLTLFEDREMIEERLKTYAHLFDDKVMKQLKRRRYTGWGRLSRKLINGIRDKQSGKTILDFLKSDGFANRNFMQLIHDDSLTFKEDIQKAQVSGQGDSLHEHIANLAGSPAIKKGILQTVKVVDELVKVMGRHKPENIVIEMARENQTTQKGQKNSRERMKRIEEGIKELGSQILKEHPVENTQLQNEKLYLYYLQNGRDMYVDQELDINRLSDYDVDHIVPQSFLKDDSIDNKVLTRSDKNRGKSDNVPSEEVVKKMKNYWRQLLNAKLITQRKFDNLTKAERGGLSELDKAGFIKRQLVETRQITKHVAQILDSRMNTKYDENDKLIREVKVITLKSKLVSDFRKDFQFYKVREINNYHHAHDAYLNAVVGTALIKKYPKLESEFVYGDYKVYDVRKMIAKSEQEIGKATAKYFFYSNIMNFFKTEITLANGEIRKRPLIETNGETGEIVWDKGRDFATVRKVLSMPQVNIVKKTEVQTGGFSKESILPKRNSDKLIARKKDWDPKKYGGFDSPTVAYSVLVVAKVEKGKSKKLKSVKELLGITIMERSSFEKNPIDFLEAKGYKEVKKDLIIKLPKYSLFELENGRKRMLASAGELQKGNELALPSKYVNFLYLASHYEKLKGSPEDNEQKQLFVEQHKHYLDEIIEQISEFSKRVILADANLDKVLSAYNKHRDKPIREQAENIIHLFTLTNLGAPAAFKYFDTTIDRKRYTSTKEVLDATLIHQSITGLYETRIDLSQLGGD
T1 sequence (Q99ZW2 whole entry): as above

## Cc1ccc(S(=O)(=O)N2CC[C@@H]3[C@H](CO)Nc4ccc(-c5ccccc5F)cc4[C@@H]32)cc1 [BRD0539, ((3aR,4R,9bR)-8-(2-fluorophenyl)-1-tosyl-2,3,3a,4,5,9b-hexahydro-1H-pyrrolo[3,2-c]quinolin-4-yl) methanol]
[1]
  human plasma stability (in words): stable in human plasma
[2]
  cell permeability (in words): cell permeable
[3]
  IC50: 22 µM
